Test results published in US20030215787A1, “Modulators of the CLC-7 chloride channel and methods for their identification and use in the treatment and prevention of osteoporosis and related disease states” (priority 2002, published 2003).

B1: RANKL: recombinant soluble RANKL: extracellular domain of human RANKL (amino acids 158-317) fused to glutathione-S-transferase, expressed in E. coli (protein, UniProt O14788 158-317, looked up, fragment)
chain: SKLEAQPFAHLTINATDIPSGSHKVSLSSWYHDRGWAKISNMTFSNGKLIVNQDGFYYLYANICFRHHETSGDLATEYLQLMVYVTKTSIKIPSSHTLMKGGSTKYWSGNSEFHFYSINVGGFFKLRSGEEISIEVSNPSLLDPDQDATYFGAFKVRDID
modifications: extracellular domain GST fusion
notes: recombinant soluble RANKL: extracellular domain of human RANKL (amino acids 158-317) fused to glutathione-S-transferase, expressed in E. coli

Key:
mature osteoclasts = conditions: known non-specific chloride channel inhibitor; cited from earlier work
Raw264.7 cells = assay: RNAi transfection and bone resorption (bovine cortical bone particles, C-telopeptide Crosslaps ELISA); type: cell-based, mouse; conditions: 100 ng/ml RANKL, day 7, FIG. 2
Method: For RNAi transfection and bone resorption, the experiment was performed as follows: 1×10^4 Raw264.7 cells were seeded per 48 well and were cultured for 4 days with 100 ng/ml RANKL. The RNAi reagent was obtained from Sequitur. On day 4, the cells were transfected with 150 nM RNAi and 2 μg/ml lipofectamine overnight. The next day, the medium was replaced and 10 mg of powered bovine cortical bone particles (PelFreeze, Inc) were distributed into each well (James, I. E., et al. (1999) J. Bone Miner. Res., 14:1562-9). The particles were resuspended in […] of tissue culture media and incubated at 4° C. for 24 h storage. 200 μl bone particles were added to the precultured cells. The bone particles were allowed to settle for 10 min, and the cells were cultured for another 48 h at which time 100 μl of the supernatant was removed for the C-telopeptide Crosslaps™ ELISA analysis according to the manufacturer's instructions (Nordic Bioscience/Denmark). The absorbance was measured at 450 nm (Molecular Devices, Sunnyvale, Calif.).

| Molecule | acidification of mature osteoclasts (mature osteoclasts) | increase of bone resorption (Raw264.7 cells) [fold] |
| --- | --- | --- |
| O=C(O)c1cccnc1Nc1cccc(C(F)(F)F)c1 [niflumic acid] | inhibits the acidification |  |
| B1 |  | 2.2 |
